In publication PMC8954523 (Pharmaceutics, 2022):
Several values for one entry are separate records, joined by “and”; a condition that tells them apart may be missing. Equal entries are not always repeated.

Assays:
Assay type in all cases: physicochemical
[1] = Hypothetical transfer thermodynamic functions from solvation functions; details: water → n-hexane
[2] = Apparent distribution coefficient, 1-octanol/water, isothermal shake-flask; details: 298.15 K
Method: The well-known isothermal shake-flask method was applied for the determination of the apparent distribution coefficients in the 1-octanol/water ( Dappoct/w ) and n-hexane/water ( Dapphex/w ) systems. The mutually saturated solvents were prepared by mixing water and organic phases for 24 h and settling and separating from each other. The stock solutions of the drug were made from 1-octanol saturated with water for the 1-octanol/water distribution, and n-hexane saturated with water for the n-hexane/water system. An aliquot of the stock solution was placed in a glass vial together with an aliquot of the respective phase and mixed for 24 h at five temperatures, from 293.15 to 313.15 K (±0.1 K). The concentrations of the compounds were determined spectrophotometrically (Shimadzu 1800, Kyoto, Japan) in a UV region, with an accuracy of 2–4%. The reported experimental values represent the average of at least four replicate experiments.
(§1) The apparent distribution coefficients were calculated from the molar concentrations of the substance in the phases using the following equation:(10) DCorg/w=C2org/w/C2w/org where DCorg/w is the apparent distribution coefficient, C2org/w and C2w/org are the concentrations (M) of the compound after the distribution in the 1-octanol or n-hexane and water phases, respectively. The apparent distribution coefficients in the mole fraction scale ( DXorg/w ) were calculated by the equation:(11) DXorg/w=X2org/w/X2w/org where X2org/w and X2w/org are the concentrations (mole fract.) of the compound after distribution. The standard Gibbs energy of the transfer ( ΔGtr0) from water to the organic phase was calculated as follows:(12) ΔGtr0=−RT(lnDXorg/w)

[3] = Transfer thermodynamic functions from distribution experiments (real transfer); details: 298.15 K
Method: as §1
The transfer enthalpy ( ΔHtr0) was derived from the temperature dependences of the distribution coefficients by the van’t Hoff approach as:(13) ∂(lnDXorg/w)/∂T=ΔHtr0/RT^2
The standard transfer entropy ( ΔStr0 ) was determined by the equation:(14) ΔGtr0=ΔHtr0−TΔStr0
As follows, additional information on the thermodynamic functions of this parameter (enthalpies and entropies) was obtained from the temperature dependences in order to disclose the transfer (n-hexane → 1-octanol) thermodynamic mechanisms. To this end, the ∆ln DX values (expressed in mole fraction units) characterizing the transfer (n-hexane → 1-octanol) were calculated as ∆ln DX = ln DXoct/w − ln DXhex/w and the respective thermodynamic functions were determined using Equations (12)–(14). The resulting temperature dependences and the contributions of the enthalpy and entropy terms to the free Gibbs energy of the hypothetical and “real” transfers are shown in Figure 5 and Table 6. […] At the same time, the thermodynamic mechanism of the (n-hexane → 1-octanol) transfer differs from the (water → organic solvents) transitions. In particular, the (n-hexane → 1-octanol) transfer process is enthalpy determined (| ΔHtr0 | > | TΔStr0 |) similar to the (water → 1-octanol) one. Nevertheless, TΔStr0 < 0 testifies to the ordering of the system as opposed to water → 1-octanol and water → n-hexane ( TΔStr0 > 0). It can be concluded that the mechanism of the (n-hexane → 1-octanol) transfer is absolutely different from the (water → n-hexane) and partially agrees with the (water → 1-octanol) transition. Importantly, the regularities estimated from the transferring diagram analysis match the results obtained using the Hansen parameters ( Δδt ^water > Δδt ^n-hexane > Δδt ^1-octanol).

[4] = n-hexane → 1-octanol, from Δ lnDX
[5] = water → 1-octanol, real transfer
[6] = water → n-hexane, real transfer

CC(O)(CS(=O)(=O)c1ccc(F)cc1)C(=O)Nc1ccc(C#N)c(C(F)(F)F)c1 (centres unmarked) [BCL, bicalutamide]
ΔGtr [1]: −4.8 kJ⋅mol^−1
experimental over calculated distribution coefficient ([2]; 1-octanol/water): 3.3 fold
logP at 24 h ([2]; 1-octanol/water, read-out: logDCoct/w, experimental): 2.82 ± 0.09
DCoct/w, experimental apparent distribution coefficient ([2]; 1-octanol/water, molarity scale): 662.29 ± 20.22
∆logDcalc ([2]; from calculated distribution coefficients): 2.30
∆logD ([2]; logDCoct/w − logDChex/w, experimental): 2.55
DC/calcoct/w, calculated distribution coefficient ([2]; ratio of molar solubilities in 1-octanol and water): 199.02 ± 12.00
DXorg/w (Δ lnDX parameter line) ([3]; 1-octanol/n-hexane (n-hexane → 1-octanol), mole fraction scale): 425.33
TΔStr0 [3, 4]: -4.18 kcal/mol
ΔGtr0 [3, 4]: -3.59 ± 0.096 kcal/mol
ΔHtr0 [3, 4]: -7.77 ± 0.382 kcal/mol
ΔStr0 [3, 4]: −58.7 ± 4.1 J⋅mol^−1⋅K^−1
TΔStr0 [3, 5]: 1.55 kcal/mol
ΔGtr0 [3, 5]: -5.14 kcal/mol and -5.14 ± 0.096 kcal/mol
ΔHtr0 [3, 5]: -3.59 ± 0.048 kcal/mol
ΔStr0 [3, 5]: 21.8 ± 0.7 J⋅mol^−1⋅K^−1
TΔStr0 [3, 6]: 5.76 kcal/mol
ΔGtr0 [3, 6]: -1.55 kcal/mol and -1.55 ± 0.048 kcal/mol
ΔHtr0 [3, 6]: 4.21 ± 0.43 kcal/mol
ΔStr0 [3, 6]: 80.8 ± 9.9 J⋅mol^−1⋅K^−1
